Data set [1] can be described thus: Therapeutically effective daily dose (oral / transdermal). The data set is classed as in vivo. As to conditions: estimated values.
For data set [2] the following is noted: cited from earlier work.
The nature of data set [3]: In vitro flux through pig skin in a Franz diffusion cell (saturated ethanolic solution or system of Example 1). Particulars: for skin permeation in vitro, alcoholic solution: saturated ethanolic solution.
Procedure: The flux of progesterone and synthetic progestrone derivatives is measured in vitro as follows:
After 24 hours, an aliquot of the aqueous acceptor solution from the acceptor compartment is examined for content of the relevant progesterone derivative and, from this, the flux in μg cm^2 ×h is calculated.
A further data set relates to endometrium carcinomas. As to conditions: following treatment; numerous studies in the USA; cited from earlier work.
For data set [4] the following is noted: cited from earlier work. The source holds these as a separate data set.
The conditions of data set [5]: vehicle of DE-A No. 3 205 258, e.g. ethanol gel; systems of acceptable size; cited from earlier work.

`C#C[C@]1(O)CC[C@H]2[C@@H]3CCC4=CC(=O)CC[C@@H]4[C@H]3CC[C@@]21CC` [d-norgestrel]: in data set [1], the “therapeutically effective daily dose, transdermal” value is listed as 0.05 mg. Further, in data set [2], the “therapeutically effective daily dose, oral” value was 0.07 to 0.15 mg. Further, the “skin permeation in vitro, alcoholic solution” value in data set [3] (pig skin, 24 hours) is recorded as 0.028 μg/cm^2 · h.
In the case of `CC(=O)O[C@]1(C(C)=O)CC[C@H]2[C@@H]3C[C@H](C)C4=CC(=O)CC[C@]4(C)[C@H]3CC[C@@]21C` [medroxyprogesterone acetate], the “therapeutically effective daily dose, transdermal” value in data set [1] is 2 mg. The “therapeutically effective daily dose, oral” value in data set [2] was 2.5 to 10 mg.
Turning to `C#C[C@]1(OC(C)=O)CC[C@H]2[C@@H]3CCC4=CC(=O)CC[C@@H]4[C@H]3CC[C@@]21C` [norethisterone acetate, norethisterone-17-acetate], the “therapeutically effective daily dose, transdermal” value in data set [1] is on record as 2 mg. The “therapeutically effective daily dose, oral” value in data set [2] is 0.5 to 5 mg.
For the compound `C#C[C@]1(O)CC[C@H]2[C@@H]3CCC4=CC(=O)CC[C@@H]4[C@H]3CC[C@@]21C` [norethisterone], in data set [1], the “therapeutically effective daily dose, transdermal” value was 0.2 mg. Also, the “therapeutically effective daily dose, oral” value in data set [2] was 0.5 to 5 mg. The “necessary surface area of system” value in data set [3] (estimated values) is 350 cm^2. Moreover, in data set [3] (pig skin, 24 hours), the “skin permeation in vitro, alcoholic solution” value amounted to 0.024 μg/cm^2 · h.
With `CCCCC(=O)O[C@H]1CC[C@H]2[C@@H]3CCc4cc(O)ccc4[C@H]3CC[C@]12C` [oestradiol valerate, estradiol-17-valerate], the “times higher incidence of endometrium carcinomas” value in the data set with endometrium carcinomas is reported as 3.3 to 6 times.
On to `C[C@]12CC[C@@H]3c4ccc(O)cc4CC[C@H]3[C@@H]1CC[C@@H]2O` [oestradiol, 17β-oestradiol], for which the “times higher incidence of endometrium carcinomas” value with endometrium carcinomas is reported as 3.3 to 6 times. In data set [4], the “resorption following oral administration” value was “unsatisfactory”. Moreover, the undesirable side-effects result in data set [4] (oral, high dosage, frequent occurrence) was “nausea, thromboembolism”. Further, the “metabolisation by the liver” value in data set [4] (oral) is recorded as “rapid”.
For the compound `CC(=O)[C@H]1CC[C@H]2[C@@H]3CCC4=CC(=O)CC[C@]4(C)[C@H]3CC[C@]12C` [progesterone], the “therapeutically effective daily dose, transdermal” value in data set [1] is given as 2 mg. Further, the “therapeutically effective daily dose, oral” value in data set [2] is 100 to 300 mg. The “amount that passes through the skin for an adequate therapeutic effect” value in data set [5] is “not sufficient”. The “skin permeation in vitro, alcoholic solution” value in data set [3] (pig skin, 24 hours) turned out to be 3.0 μg/cm^2 · h. Besides, the “skin permeation in vitro, system according Example 1” value in data set [3] (transdermal therapeutic system according to Example 1, pig skin, 24 hours) was found to be 0.073 μg/cm^2 · h.

These data come from US4913905A, “Transdermal therapeutic systems for active ingredient combinations” (priority 1987, dated 1990).
